Measurements taken from patent publication US11154057B2, “Use of nootkatone to treat mosquito infestations” (EVOLVA SA, priority 2016, dated 2021).

Experiments:
Assay type in all cases: in vivo
[1] = test system: 3rd/4th instar larvae; test: Duration of protection from larvae, Method 1: daily addition of new larval cohorts to treated beakers (Example No. 4)
Experimental: Method 1: Clean, glass 600 mL beakers were set up as test containers (such that the surface area of water to be treated was 54 cm^2), and were treated with 1 mL of 3% nootkatone in ethanol (v/v), or 1 mL of ethanol alone, as in Example No. 1, to achieve a final concentration of 0.03% nootkatone (v/v). After 24 hours, 100% of larvae were dead in the treated beakers, but 100% were alive in the control beakers, as in Example No. 1. An additional cohort of 25 larvae was added to each treatment beaker in the smallest practical volume of additional water, estimated at 1 mL per beaker. After an additional 24 hours, total live and dead larvae were counted and recorded. Testing continued by addition of new larval cohorts (25 per beaker, per day) for additional 24 hour periods until either there were no available 3rd/4th instar larvae, or until the rate of larval killing decreased.
In two replicate experiments, larvae cohorts were added to test containers in the presence of 0.03% nootkatone, 1% ethanol, starting 24 to 72 hours after addition of nootkatone and ethanol to the test containers (see FIGS. 5 and 6). In the second experiment, additional additional larval replicates were added simultaneously to test containers in the presence of 0.01% nootkatone, 1% ethanol (see FIG. 6).
In a separate experiment with the same experimental set-up, test containers were inoculated with nootkatone in ethanol 48 hours prior to addition of larvae (see FIG. 7). In these experiments, 100% of larvae were killed within 24 hours up to a week after nootkatone treatment. One week after addition of nootkatone, larval mortality was still at 94%.

[2] = test system: 3rd and 4th instar larvae; test: Duration of protection from larvae, Method 2: individual pre-treated beakers used once (Example No. 4); settings: for larvae mortality rates: through one week of treatment
Experimental: Method 2: Clean, glass 600 mL beakers were set up as test containers (such that the surface area of water to be treated was 54 cm^2), and were treated with 1 mL of 1% or 3% nootkatone in ethanol (v/v), or 1 mL of ethanol alone, to achieve a final concentration of 0.01% or 0.03% nootkatone (v/v), respectively. Beakers were lightly covered with Kimwipes to prevent contamination, and to reduce evaporation. Beakers treated with 1 mL of 100% ethanol were used as controls. Four cohorts of 25 3rd and 4th instar larvae were added to individual beakers per day, 3-14 days after treatment with nootkatone, and mortality of larvae was recorded 24 and 48 hours after addition of larvae to beakers.
For the experimental data shown in FIGS. 5-7, the method used included addition and removal of water, and potentially, removal of nootkatone, on each succeeding day. In a new experiment, individual beakers were set up in advance, so that all beakers were used one and only one time to test the longevity of nootkatone, with the only possible loss due to evaporation.
In a separate experiment using the same setup, nootkatone-treated beakers were held for two weeks prior to addition of larvae. Due to the extended time delay, more than 50% of the original liquid volume had evaporated. To avoid having a potentially higher concentration of nootkatone than the desired 0.03%, sterile water was added to bring the total volume back to 100 mL before larval cohorts were added.

[3] = test system: Aedes aegypti pupae; test: Efficacy against mosquito pupae (Example No. 6); settings: for pupae died within 24 hours: 0.03% nootkatone/1% ethanol
Experimental: Eggs of Aedes aegypti were purchased from a commercial supplier. Eggs were hatched in sterile MilliQ water and fed with finely ground Tetramin® fish food until they developed into pupae.
Clean, glass 600 mL beakers were washed and thoroughly rinsed prior to use as test containers. On testing days, pupae were removed from dishes used to grow larvae. Replicates of 10 pupae each were randomly assigned to glass beakers in a volume of 100 mL of sterile MilliQ water, and a treatment of nootkatone (see “Treatments” below), or a control treatment of ethanol alone, was added. Three control replicates and 4 treated replicates were tested on one day, and on a second day, two control replicates and four treated replicates were tested. The beakers were then covered lightly with Kimwipes, secured by rubber bands to prevent escape of adults. The beakers were observed after 24 hours, and the numbers of live pupae, dead pupae, live adults, and dead adults were recorded.
An aliquot of 1 mL of a 3% solution (w/v) of nootkatone in 100% ethanol was added to treatment beakers to obtain a final concentration of 0.03% nootkatone/1% ethanol. Control beakers received 1 mL of 100% ethanol, to obtain a final concentration of 1% ethanol.

[4] = test system: Aedes aegypti larvae; test: Nootkatone crystals dropped onto the water surface as larvicide (Example No. 9, Treatment 3); settings: for Alive / Dead / KD: 30 mg NK crystals in 100 mL water
Experimental: In this example, nootkatone-containing compositions were evaluated for their ability to act as a larvicide by coating a water surface. Mixed sex 3rd and 4th instar Aedes aegypti larvae (Yellow fever mosquito) were tested.
Standard storage conditions for nootkatone crystals is 4° C., therefore, the ability of crystals to coat a water surface without first liquifying them was tested. 30 mg of 98% pure nootkatone crystals was weighed and gently dropped onto the surface of 100 mL of water in a 600 mL clean, glass beaker containing 10 mixed sex 3rd and 4th instar Aedes aegypti larvae (3 replicates). Three control replicates of 10 larvae each were placed in identical beakers of 100 mL of water, but without nootkatone. All beakers were provided with finely ground fish food, and they were maintained at room temperature (˜72° F.).

[5] = 30 mg nootkatone crystals, at 27 hours

C=C(C)[C@@H]1CCC2=CC(=O)C[C@@H](C)[C@]2(C)C1 [Nootkatone, nootkatone]
mortality rate ([1]; 0.01% nootkatone (v/v), 72 hours after application, FIG. 6): about 10%
mortality ([1]; 0.01% nootkatone (v/v), larvae added after application, through 48 hours, FIG. 6): 100%
larvae dead ([1]; 0.03% nootkatone (v/v), after 24 hours, first cohort): 100%
mortality ([1]; 0.03% nootkatone (v/v), larvae added 0, 24, 48, and 78 hours after application, FIG. 5): 100%
mortality ([1]; 0.03% nootkatone (v/v), larvae added after application, through 48 hours, FIG. 6): 100%
mortality ([1]; 0.03% nootkatone (v/v), through 72 hours after application, FIG. 6): 100%
mortality rates ([1]; 0.03% nootkatone (v/v), through one week of treatment, FIG. 7): greater than 90%
larvae killed within 24 hours ([1]; 0.03% nootkatone, containers inoculated 48 hours prior to larvae, up to a week after nootkatone treatment, FIG. 7): 100%
larval mortality ([1]; 0.03% nootkatone, one week after addition of nootkatone, FIG. 7): 94%
larvae mortality rates ([2]; 0.01% nootkatone (v/v), twenty-four hours of exposure, FIG. 8): over 80%
killing at 24 hours ([2]; 0.01% nootkatone, larvae added 3 days after water treatment, FIG. 8): 98%
killing at 24 hours ([2]; 0.01% nootkatone, larvae added 7 days after water treatment, FIG. 8): 81%
larval mortality ([2]; 0.01% nootkatone, scored 48 hours after addition of larvae, 3-7 days after water treatment, FIG. 9): 100%
nootkatone killing duration ([2]; 0.03% concentration): at least two weeks
larvae killed within 24 hours ([2]; 0.03% nootkatone, beakers held two weeks before larvae, volume restored to 100 mL, FIG. 10): 100%
larvae mortality rates ([2]; 0.03% nootkatone, forty-eight hours of exposure, FIG. 9): 100%
larvae killed within 24 hours ([2]; 0.03% nootkatone, larvae added 3-7 days after water treatment, FIG. 8): 100%
pupae died within 24 hours, average ([3]; 0.03% nootkatone/1% ethanol in water, average of two test days, controls 3%, FIG. 12): 94%
pupae died within 24 hours ([3]; one experiment): 93%
pupae died within 24 hours ([3]; second day of testing): 95%
Alive ([4]; 1 hr): 100%
Dead ([4]; 1 hr): 0%
KD ([4]; 1 hr): 0%
Alive ([4]; 27 hr): 53%
Dead ([4]; 27 hr): 7%
KD ([4]; 27 hr): 40%
Alive ([4]; 54 hr): 3%
Dead ([4]; 54 hr): 70%
KD ([4]; 54 hr): 27%
Alive ([4]; 77.5 hr): 0%
Dead ([4]; 77.5 hr): 97%
KD ([4]; 77.5 hr): 3%
killing ([4]; 30 mg nootkatone crystals, after more than 3 days): below 100%
larvae alive (unaffected plus affected) [4, 5]: 93%
larvae that appeared to be unaffected [4, 5]: ~50%
